For the series, the system named is S. typhimurium/E. coli reverse mutation, colony counts. Kind of series: Bacterial reverse mutation test (aka Ames test) summary data. An outline of the steps:
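Revertant colony counts on plates, compared with untreated controls, after about two days of growth. Exposure with or without liver S9 (rat/hamster/mouse), dose range per strain, 20-min 37° C preincubation or direct plate incorporation. Strains: his⁻ Salmonella, trp⁻ E. coli WP2 uvrA pKM101.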
(In the Ames test, an excess of revertant colonies over the control signals mutagenicity.)

Inconclusive results are not listed. Active and inactive are the calls of the source. The rule behind the calls is not given here.

Consider `CCCCOC(=O)c1ccccc1N`, for which the outcome was “inactive; negative”. Under `Brc1ccccc1-c1ccccc1` stands “inactive; negative”. For the compound `Nc1ccc(-c2ccccc2)cc1`, the outcome was “active; positive”. Under `O=[N+]([O-])c1cc(Cl)c(Cl)c(Cl)c1Cl` stands “inactive; negative”.

For `COc1ccccc1O`, the outcome was “inactive; negative”.

On to `CC(=O)C(C)=NO`, for which the outcome is “inactive; negative”. Under `Nc1ccccc1O` stands “active; positive”. On to `CC1=NN(c2ccccc2)C(=O)C1`, for which the outcome was “inactive; negative”. Under `CC(O)CO` (stereo unspecified) stands “inactive; negative”. In the case of `ClC1C(Cl)C(Cl)C(Cl)C(Cl)C1Cl` (stereo unspecified) it was “inactive; negative”. Under `CC[C@H](C)COC(=O)C=Cc1ccc(N=Cc2ccc(OC)cc2)cc1` stands “active; positive”; under `CC(N)CN` (stereo unspecified), “inactive; negative”; under `CC(Cl)(Cl)Cl`, “inactive; negative”.

In the case of `CCC[N+](CCC)(CCC)CCC`, the outcome is “active; weakly positive”.

Consider `CC1(C)CC(N=C=O)CC(C)(CN=C=O)C1` (stereo unspecified), for which the outcome is “inactive; negative”. As for `O=C(OCC1CO1)C1CCCCC1C(=O)OCC1CO1` (stereo unspecified), the outcome was “active; positive”.

The values are drawn from PubChem BioAssay AID2202554 (NIEHS Division of Translational Toxicology (DTT)).
